In patent publication US11311501B2, “Mitoriboscins: mitochondrial-based therapeutics targeting cancer cells, bacteria, and pathogenic yeast” (LUNELLA BIOTECH, INC., priority 2017, dated 2022):
In brackets after ≈: the same amount, converted by molar mass. Blank lines part the entries; values can stand above or below the molecule they belong to.

Legend:
MCF7 cell monolayers = test: Cell viability of MCF7 monolayers (SRB); assay type: cell-based, human; conditions: FIG. 6
Description: (§1) The present approach includes methods of confirming cell viability. Persons of skill in the art may select one or more methods for confirming cell viability suitable for the particular embodiment. The inventors initially used the Sulphorhodamine (SRB) assay, which is based on the measurement of cellular protein content. After treatment for 72 hours in 96-well plates, cells were fixed with 10% trichloroacetic acid (TCA) for 1 hour in the cold room, and were dried overnight at room temperature. Then, cells were incubated with SRB for 15 min, washed twice with 1% acetic acid, and air dried for at least 1 hour. Finally, the protein-bound dye was dissolved in a 10 mM Tris, pH 8.8 solution and read using the plate reader at 540-nm. Using the SRB assay, the inventors selected only the compounds depleting ATP levels without prominent cytotoxicity for further analysis. Prominent cytotoxicity was defined as fewer than 30% of cells still on the plate. Of course, embodiments employing other cell viability confirmation methodology may select compounds for further analysis based on other considerations as may be known in the art.
(§2) Based on this analysis, the inventors assessed the functional effects of the three candidates on overall viability in MCF7 cell monolayers and normal human fibroblasts (hTERT-BJ1 cells) (FIG. 6). […]

K. pneumoniae ATCC 13883 = test: MIC by broth dilution method; assay type: cell-based
Description: (§3) The minimal inhibitory concentration (MIC) of the antibacterial compounds may be determined using the broth dilution method, according to CLSI guidelines. Test compound solutions (or antibiotic solutions used as positive controls) were diluted, serially, with MHB medium. Then, the suspensions of the microorganisms, prepared from overnight cultures of bacteria in the MHB medium, at a concentration of 10^6 CFU/ml, were added to each dilution in a 1:1 ratio. McFarland standards were used as a reference to adjust the turbidity of microorganism suspensions. Growth (or lack thereof) of the microorganisms was determined after incubation for 24 hours at 37° C. by turbidimetry (wavelength of 600 nm). […] The susceptibility test by measurement of MIC was performed in triplicate and repeated three times independently.

[1] = test system: Staph. aureus ATCC 25923 (MSSA); test: MIC by broth dilution method; assay type: cell-based
Description: as §3

[2] = test system: Strept. pyogenes ATCC 19615; test: MIC by broth dilution method; assay type: cell-based
Description: as §3

E. coli ATCC 25922 = test: MIC by broth dilution method; assay type: cell-based; conditions: E. coli ATCC 25922, 24 hours at 37° C.
Description: as §3

C. albicans = test: MIC by broth dilution method; assay type: cell-based; conditions: C. albicans ATCC 13883
Description: as §3, with “nm). MIC 50 and MIC 99 are defined as the minimum inhibitory concentration of the compound required for 50% and 99% inhibition of bacterial growth.” for “nm).”, “independently. Statistical significance was determined using the Student's t-test and values of less than 0.05 were considered significant.” for “independently.”
(§4) In order to determine the minimal inhibitory concentration (MIC) for 24/F9, 24/D4 and 23/G4, the broth dilution method may be performed.

MRSA ATCC 43300 = test: MIC by broth dilution method; assay type: cell-based, Methicillin-resistant Staphylococcus aureus
Description: as §3, with “nm). MIC 50 and MIC 99 are defined as the minimum inhibitory concentration of the compound required for 50% and 99% inhibition of bacterial growth.” for “nm).”, “independently. Statistical significance was determined using the Student's t-test and values of less than 0.05 were considered significant.” for “independently.”
as §4

P. auriginosa ATCC 27853 = test: MIC by broth dilution method; assay type: cell-based, P. aeruginosa
Description: as §3

MCF7 cells [3] = test: Mammosphere formation assay; assay type: cell-based, human; conditions: 5 μM, FIG. 5
Excerpt: The present approach involves methods of testing compounds, and in particular mitoriboscins, for anti-cancer properties. As discussed above, vHTS and computational chemistry may be used to identify candidate mitochondrial inhibitors. Those candidates may be tested for specific anti-cancer properties. For examples, the inventors compared seven candidate compounds in parallel for their ability to inhibit mammosphere formation in MCF7 cells. […] For example, 23/G4 (Group 1) reduced mammosphere formation by 50% at this concentration. Similarly, 24/F9 (Group 2) and 24/D4 (Group 3), both reduced mammosphere formation by ˜90%.

MCF7 cells [4] = test: Seahorse XF96 metabolic flux analysis (OCR/ECAR); assay type: cell-based, human
Excerpt: The present approach further involves methods of functional validation at step S105, during which a compound's function as a mitochondrial inhibitor may be confirmed. A number of methods may be used for functional validation, including, for example, metabolic flux analysis, mammosphere assays, viability assays, and antibiotic (anti-bacterial and/or anti-fungal) activity. For example, the inventors determined extracellular acidification rates (ECAR) and real-time oxygen consumption rates (OCR) for MCF7 cells using the Seahorse Extracellular Flux (XF96) analyzer (Seahorse Bioscience, MA, USA). MCF7 cells were maintained in DMEM supplemented with 10% FBS (fetal bovine serum), 2 mM GlutaMAX, and 1% Pen-Strep. 5,000 cells per well were seeded into XF96-well cell culture plates, and incubated overnight at 37° C. in a 5% CO2 humidified atmosphere. After 24 hours, cells were treated with selected compounds showing ATP-depletion without prominent cytotoxicity at various concentrations (or vehicle alone). After 72 hours of treatment, cells were washed in pre-warmed XF assay media (for OCR measurement, XF assay media was supplemented with 10 mM glucose, 1 mM Pyruvate, 2 mM L-glutamine and adjusted at pH 7.4). Cells were maintained in 175 μL/well of XF assay media at 37° C. in a non-CO2 incubator for 1 hour. During incubation, 25 μL of 80 mM glucose, 9 μM oligomycin, 1M 2-deoxyglucose (for ECAR measurement) and 25 μL of 10 μM oligomycin, 9 μM FCCP, 10 μM rotenone, 10 μM antimycin A (for OCR measurement) in XF assay media was loaded into the injection ports of the XFe-96 sensor cartridge. During the experiment, the instrument injected these inhibitors into the wells at a given time point, while ECAR/OCR was measured continuously. ECAR and OCR measurements were normalized by protein content (using the Sulphorhodamine B assay). Data sets were analyzed by XFe-96 software, using one-way ANOVA and Student's t-test calculations. All experiments were performed in triplicate, and results validated the mitochondrial inhibition effects of mitoriboscin compounds described herein. It should be appreciated that numerous methods are known for functional validation, and that persons of skill in the art may select one or more depending on the validation needs (e.g., other assays that measure or approximate mitochondrial function). The present approach involves methods of function validation of mitoriboscin compounds. For example, the inventors assessed functional validation of three candidates using the Seahorse Analyzer, which quantitatively measures oxygen consumption rate (OCR) and extracellular acidification rate (ECAR). OCR is a surrogate marker for OXPHOS and ECAR is a surrogate marker for glycolysis and L-lactate production.

hTERT-BJ1 cells = test: Cell viability of normal fibroblasts; assay type: cell-based; conditions: 5 μM, normal human fibroblasts, FIG. 6
Description: as §1, §2

[5] = test system: twelve different cell lines, representing eight different cancer types; conditions: cited from earlier work
[6] = Staph. aureus ATCC 25923 (Table 3)

MIC 50% (K. pneumoniae ATCC 13883): 16 µg/mL (≈ 37.7 µM) | MIC 99% (K. pneumoniae ATCC 13883): 32 µg/mL (≈ 75.5 µM) | MIC 50% ([1]; MSSA ATCC 25923 (Table 4)): 4 µg/mL (≈ 9.44 µM) | MIC 99% ([1]; MSSA ATCC 25923 (Table 4)): 8 µg/mL (≈ 18.9 µM) | MIC 50% [1, 6]: 4 µg/mL (≈ 9.44 µM) | MIC 99% [1, 6]: 8 µg/mL (≈ 18.9 µM) | MIC 50% [2]: 4 µg/mL (≈ 9.44 µM) | MIC 99% [2]: 8 µg/mL (≈ 18.9 µM) | MIC 50% (E. coli ATCC 25922): >16 µg/mL | MIC 99% (E. coli ATCC 25922): >32 µg/mL | MIC 50% (C. albicans): 8 µg/mL (≈ 18.9 µM) | MIC 99% (C. albicans): 16 µg/mL (≈ 37.7 µM) | MIC 50% (MRSA ATCC 43300; MRSA ATCC 43300): 16 µg/mL (≈ 37.7 µM) | MIC 99% (MRSA ATCC 43300; MRSA ATCC 43300): >32 µg/mL | MIC 50% (P. auriginosa ATCC 27853): 16 µg/mL (≈ 37.7 µM) | MIC 99% (P. auriginosa ATCC 27853): 32 µg/mL (≈ 75.5 µM)
SMILES: OC1C(NCc2ccccc2)CCCC1Oc1ccccc1Oc1ccc(Cl)cc1 (stereo not shown) [23/G4]
effect on overall cell viability of MCF7 monolayers (MCF7 cell monolayers; 500 nM and 2.5 μM): little or no effect | reduction of viability of MCF7 cells (MCF7 cell monolayers; 5 μM): 70% | sensitivity of MRSA (MRSA ATCC 43300; MRSA, summary of Table 4): sensitive | reduction of mammosphere formation (MCF7 cells [3]): 50% | reduction of ATP levels (MCF7 cells [4]; 500 nM): > 50% | reduction of ATP levels (MCF7 cells [4]; 2.5 μM, FIG. 7): ~75% | reduction in ATP levels (MCF7 cells [4]; 5 μM, FIG. 10): greater than 75% | increase in glycolysis rates (MCF7 cells [4]; ECAR): more than 1.5 fold | inhibition of mitochondrial oxygen-consumption (MCF7 cells [4]; FIGS. 7, 8 and 9): dose-dependently inhibited | rank order potency to reduce maximal respiration and ATP production (MCF7 cells [4]; top 10 hits, FIG. 10): top 6 | effect on viability of hTERT-BJ1 cells (hTERT-BJ1 cells): no effect

SMILES: CC[C@H]1OC(=O)[C@H](C)[C@@H](O[C@H]2C[C@@](C)(OC)[C@@H](O)[C@H](C)O2)[C@H](C)[C@@H](O[C@@H]2O[C@H](C)C[C@H](N(C)C)[C@H]2O)[C@](C)(O)C[C@@H](C)C(=O)[C@H](C)[C@@H](O)[C@]1(C)O [Erithromycin]
efficacy in cancer cell lines [5]: show efficacy
